Measured values reported in ChEMBL document CHEMBL1143338, “Design of beta-hairpin peptides for modulation of cell adhesion by beta-turn constraint” (J Med Chem, 2009).
Positions of bridges follow the written chain, without caps; N, C: chain ends. Residues, ends and D or L forms follow the SMILES beside them.

Assays:
Format in all cases: cell-based
[1] = Cytotoxicity against human Caco-2 cells assessed as cell viability at 180 uM after 2 hrs by MTT assay; settings: read-out: Activity
Jurkat = experiment: Inhibition of CD2-CD58 interaction assessed as inhibition of CD2 expressing human Jurkat T cell to CD58 expressing sheep RBC adhesion-associated E-rosette formation at 180 uM after 45 mins by microplate fluorescence analysis
[2] = target: T1, T-cell surface antigen CD2 (Homo sapiens) (UniProt P06729); experiment: Inhibition of CD2-CD58 interaction assessed as inhibition of CD2 expressing human Jurkat T cell adhesion to CD58 expressing human Caco-2 cells at 90 uM after 45 mins by microplate fluorescence analysis
T1 sequence (whole entry): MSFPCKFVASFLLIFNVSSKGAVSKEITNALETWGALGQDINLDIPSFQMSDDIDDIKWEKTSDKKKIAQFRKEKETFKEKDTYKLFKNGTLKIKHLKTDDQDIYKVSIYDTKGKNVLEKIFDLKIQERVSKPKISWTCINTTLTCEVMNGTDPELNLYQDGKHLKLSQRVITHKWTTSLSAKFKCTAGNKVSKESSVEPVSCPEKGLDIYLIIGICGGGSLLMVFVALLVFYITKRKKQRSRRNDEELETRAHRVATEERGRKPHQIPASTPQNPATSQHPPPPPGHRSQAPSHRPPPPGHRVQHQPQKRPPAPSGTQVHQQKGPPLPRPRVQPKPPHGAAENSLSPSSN

[3] = target: T1, T-cell surface antigen CD2 (Homo sapiens); experiment: Inhibition of CD2-CD58 interaction assessed as inhibition of CD2 expressing human Jurkat T cell adhesion to CD58 expressing human Caco-2 cells after 45 mins by microplate fluorescence analysis relative to control
[4] = target: T2, Lymphocyte function-associated antigen 3 (Homo sapiens) (UniProt P19256); experiment: Inhibition of antiCD58-FITC binding to CD58 in human Caco-2 cells at 180 uM after 1 hr by fluorescence analysis relative to control
T2 sequence (whole entry): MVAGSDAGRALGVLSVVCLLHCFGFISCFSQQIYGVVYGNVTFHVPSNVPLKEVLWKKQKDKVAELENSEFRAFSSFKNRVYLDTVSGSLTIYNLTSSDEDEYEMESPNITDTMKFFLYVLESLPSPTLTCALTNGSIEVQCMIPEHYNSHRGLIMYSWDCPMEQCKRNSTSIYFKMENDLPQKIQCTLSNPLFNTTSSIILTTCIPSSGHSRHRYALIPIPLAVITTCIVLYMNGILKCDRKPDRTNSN

SMILES | inhibition [2] [%] | Activity [3] | inhibition [4] [%] | viability at 2 h, 180 µM [1] [%] | inhibition (Jurkat) [%]
CC[C@H](C)[C@@H]1NC(=O)[C@H](CC(=O)O)NC(=O)[C@H](CC(=O)O)NC(=O)CNC(=O)[C@@H]2CCCN2C(=O)[C@H](CC(=O)O)NC(=O)[C@H](Cc2ccc(O)cc2)NC(=O)[C@H]([C@@H](C)CC)NC(=O)[C@H](CCC(=O)O)NC(=O)[C@H](CCCCN)NC1=O |  |  |  | > 80 | 
CC[C@H](C)[C@@H]1NC(=O)[C@H](CO)NC(=O)[C@@H](N)C(C)(C)SSC[C@@H](C(=O)O)NC(=O)[C@@H](CCCCN)NC(=O)[C@H]([C@@H](C)CC)NC(=O)[C@H](CC(=O)O)NC(=O)[C@H](CC(=O)O)NC(=O)CNC(=O)[C@@H]2CCCN2C(=O)[C@H](CC(=O)O)NC(=O)[C@H](Cc2ccc(O)cc2)NC1=O | 30 |  |  | > 80 | 20
CC[C@H](C)[C@@H]1NC(=O)[C@H](CC(=O)O)NC(=O)[C@H](CC(=O)O)NC(=O)CNC(=O)[C@@H]2CCCN2C(=O)[C@H](CC(=O)O)NC(=O)[C@H](Cc2ccc(O)cc2)NC(=O)[C@H]([C@@H](C)CC)NC(=O)[C@H](CO)NC(=O)[C@@H](N)CCC(=O)NCCCC[C@@H](C(=O)O)NC1=O (H-ESIYDPGDDIK-OH; lactam 1-11) | 80 | Dose-dependent effect | 45 | > 80 | 60

Now from value to molecule, other results behind:

inhibition [2] [%] | Activity [3] | inhibition [4] [%] | SMILES | viability at 2 h, 180 µM [1] [%] | inhibition (Jurkat) [%]
80 | Dose-dependent effect |  | CC[C@H](C)[C@@H]1NC(=O)[C@H](CC(=O)O)NC(=O)[C@@H](CC(=O)O)NC(=O)CNC(=O)[C@@H]2CCCN2C(=O)[C@H](CC(=O)O)NC(=O)[C@H](Cc2ccc(O)cc2)NC(=O)[C@H]([C@@H](C)CC)NC(=O)[C@H](CCC(=O)O)NC(=O)[C@H](CCCCN)NC1=O |  | 60
80 | Dose-dependent effect |  | CC[C@H](C)[C@@H]1NC(=O)[C@H](CC(=O)O)NC(=O)[C@H](CC(=O)O)NC(=O)CNC(=O)[C@@H]2CCCN2C(=O)[C@H](CC(=O)O)NC(=O)[C@H](Cc2ccc(O)cc2)NC(=O)[C@H]([C@@H](C)CC)NC(=O)[C@@H](N)CCC(=O)NCCCC[C@@H](C(=O)O)NC1=O (H-EIYDPGDDIK-OH; lactam 1-10) | > 80 | 50
